Source: patent US20180200257A1, “METHODS FOR THE TREATMENT OF INFLAMMATORY DISORDERS” (Galapagos NV, priority 2015, published 2018)

System: subjects with moderately to severely active RA who have an inadequate response to methotrexate (MTX)
Assay: Study 2 (monotherapy) - ACR responses (ACR20/50/70)
Type: in vivo, human
Source text: The terms “ACR20”, “ACR50” and “ACR70” as used herein are scores which indicate how much a patient's rheumatoid arthritis has improved according to criteria set out by the American College of Rheumatology (ACR). The ACR score represents a percentage. An ACR20 score means that a person's RA has improved by 20%, an ACR50 score means it has improved by 50%, and an ACR70 score means it has improved by 70%. Specifically, to qualify for an ACR20 score, a person with RA must have at least 20% fewer tender joints and at least 20% fewer swollen joints. In addition the patient must show a 20% improvement in at least three of the following five areas: the person's overall (global) assessment of his or her own RA, the physician's global assessment of the person's RA, the person's assessment of his or her own pain, the person's assessment of his or her own physical functioning, and the results of an erythrocyte sedimentation rate or C-reactive protein (CRP) blood test (both of which test for inflammation). ACR50 and ACR70 scores use the same criteria but require 50% and 70% improvement, respectively, (Felson et al., 1993). In the data presented herein the CRP blood test is used.
Randomized, double-blind, placebo-controlled, multicenter, phase IIb dose finding study of Compound 1 (dosed as a [Compound 1:HCl:3H2O]) administered for 24 weeks as monotherapy to subjects with moderately to severely active rheumatoid arthritis who have an inadequate response to methotrexate alone
Double-blind, placebo-controlled, monotherapy study in subjects with moderately to severely active RA who have an inadequate response to methotrexate (MTX) (oral or parenteral).
280 subjects randomized to one of 3 doses of Compound 1 (dosed as a [Compound 1:HCl:3H2O]) or to placebo, given once daily (q.d.).
Twelve weeks of treatment with Compound 1 (dosed as a [Compound 1:HCl:3H2O]) at 50 mg, 100 mg, or 200 mg q.d.; or placebo. At Week 12, all subjects on placebo and the subjects on the 50 mg dose who have not achieved 20% improvement in swollen joint count (SJC66) and tender joint count (TJC68) will be assigned to 100 mg q.d. in a blinded fashion and will continue treatment until Week 24. Subjects in the other groups will maintain their randomized treatment until Week 24.
The American College of Rheumatology (ACR) composite score, which evaluates clinical improvement relative to an initial assessment, is a commonly accepted efficacy end point for clinical trials in patients with rheumatoid arthritis. The ACR score correspond to a percentage improvement in pre-set parameters, and therefore measures the evolution of the disease in a patient. For example, ACR20 denotes at least 20% improvement in tender and swollen joint counts and in three of the following end points: global assessment by the patient, global assessment by the doctor, C reactive protein (CRP), patient's pain Visual Analogue Scale and Health Assessment Questionnaire Score. The number of swollen joints, ESR and CRP correlate with radiographic progression of joint damage, whereas tender joint counts, as well as global assessments by doctors and patients, and patients' reports of pain, are sensitive to change in clinical outcomes. Physical function, as assessed by the Health Assessment Questionnaire Score, is a potent predictor of the risk of disability in rheumatoid arthritis (Felson and American College of Rheumatology Committee to Reevaluate Improvement Criteria, 2007; Felson et al., 1993).
In particular, the list of parameters used to assess ACR score can be found in the Table XCVI below and the results of the ACR responses at week 12 via either NRI or LOCF are shown in the tables below. The Hommel-corrected p-value for the pairwise comparisons of each group with placebo is shown. […]

[1] = 50 mg q.d., week 1, 12 weeks results
[2] = 50 mg q.d., week 1, 24 weeks results
[3] = 50 mg q.d., week 2, 12 weeks results
[4] = 50 mg q.d., week 2, 24 weeks results
[5] = 50 mg q.d., week 4, 12 weeks results
[6] = 50 mg q.d., week 4, 24 weeks results
[7] = 50 mg q.d., week 12, 12 weeks results
[8] = 50 mg q.d., week 12, 24 weeks results
[9] = 50 mg q.d., week 16, 24 weeks results
[10] = 50 mg q.d., week 20, 24 weeks results
[11] = 50 mg q.d., week 24, 24 weeks results
[12] = 50 mg q.d., week 8, 12 weeks results
[13] = 50 mg q.d., week 8, 24 weeks results
[14] = 100 mg q.d., week 1, 12 weeks results
[15] = 100 mg q.d., week 1, 24 weeks results
[16] = 100 mg q.d., week 2, 12 weeks results
[17] = 100 mg q.d., week 2, 24 weeks results
[18] = 100 mg q.d., week 4, 12 weeks results
[19] = 100 mg q.d., week 4, 24 weeks results
[20] = 100 mg q.d., week 8, 24 weeks results
[21] = 100 mg q.d., week 12, 12 weeks results
[22] = 100 mg q.d., week 12, 24 weeks results
[23] = 100 mg q.d., week 16, 24 weeks results
[24] = 100 mg q.d., week 20, 24 weeks results
[25] = 100 mg q.d., week 24, 24 weeks results
[26] = 100 mg q.d., week 8, 12 weeks results
[27] = 200 mg q.d., week 1, 12 weeks results
[28] = 200 mg q.d., week 1, 24 weeks results
[29] = 200 mg q.d., week 2, 12 weeks results
[30] = 200 mg q.d., week 2, 24 weeks results
[31] = 200 mg q.d., week 4, 12 weeks results
[32] = 200 mg q.d., week 4, 24 weeks results
[33] = 200 mg q.d., week 8, 24 weeks results
[34] = 200 mg q.d., week 12, 12 weeks results
[35] = 200 mg q.d., week 12, 24 weeks results
[36] = 200 mg q.d., week 16, 24 weeks results
[37] = 200 mg q.d., week 20, 24 weeks results
[38] = 200 mg q.d., week 24, 24 weeks results
[39] = 200 mg q.d., week 8, 12 weeks results

## O=C(Nc1nc2cccc(-c3ccc(CN4CCS(=O)(=O)CC4)cc3)n2n1)C1CC1 [Compound 1, cyclopropanecarboxylic acid {5-[4-(1,1-dioxo-thiomorpholin-4-ylmethyl)-phenyl]-[1,2,4]triazolo[1,5-a]pyridin-2-yl}-amide]
[1]
  ACR20 (LOCF): 20.8
  ACR20 (NRI): 22.2%
  ACR50 (LOCF): 1.4%
  ACR50 (NRI): 1.4%
  ACR70 (LOCF): 0.0%
  ACR70 (NRI): 0.0%
[2]
  ACR20 (LOCF): 22.2
  ACR20 (NRI): 22.2%
  ACR50 (LOCF): 1.4%
  ACR50 (NRI): 1.4%
  ACR70 (LOCF): 0.0%
  ACR70 (NRI): 0.0%
[3]
  ACR20 (LOCF): 33.3%
  ACR20 (NRI): 34.7%
  ACR50 (LOCF): 5.6%
  ACR50 (NRI): 5.6%
  ACR70 (LOCF): 1.4%
  ACR70 (NRI): 1.4%
[4]
  ACR20 (LOCF): 33.3%
  ACR20 (NRI): 33.3%
  ACR50 (LOCF): 5.6%
  ACR50 (NRI): 5.6%
  ACR70 (LOCF): 1.4%
  ACR70 (NRI): 1.4%
[5]
  ACR20 (LOCF): 54.2%
  ACR20 (NRI): 54.2%
  ACR50 (LOCF): 13.9%
  ACR50 (NRI): 15.3%
  ACR70 (LOCF): 8.3%
  ACR70 (NRI): 8.3%
[6]
  ACR20 (LOCF): 52.8%
  ACR20 (NRI): 52.8%
  ACR50 (LOCF): 15.3%
  ACR50 (NRI): 15.3%
  ACR70 (LOCF): 8.3%
  ACR70 (NRI): 8.3%
[7]
  ACR50 (NRI): 36.1%%
  ACR70 (NRI): 8.3%%
[8]
  ACR50 (NRI): 34.7%
  ACR70 (NRI): 8.3%
[9]
  ACR50 (NRI): 33.3%
  ACR70 (NRI): 15.3%
[10]
  ACR50 (NRI): 27.8%
  ACR70 (NRI): 12.5%
[11]
  ACR50 (NRI): 31.9%
  ACR70 (NRI): 19.4%
[12]
  ACR20 (LOCF): 62.5%
  ACR20 (NRI): 61.1%
  ACR50 (LOCF): 16.7%
  ACR50 (NRI): 16.7%
  ACR70 (LOCF): 6.9%
  ACR70 (NRI): 6.9%
[13]
  ACR20 (LOCF): 61.1%
  ACR20 (NRI): 61.1%
  ACR50 (LOCF): 16.7%
  ACR50 (NRI): 16.7%
  ACR70 (LOCF): 6.9%
  ACR70 (NRI): 6.9%
[14]
  ACR20 (LOCF): 24.3%
  ACR20 (NRI): 24.3%
  ACR50 (LOCF): 10.0%
  ACR50 (NRI): 10.0%
  ACR70 (LOCF): 1.4%
  ACR70 (NRI): 1.4%
[15]
  ACR20 (LOCF): 24.3%
  ACR20 (NRI): 24.3%
  ACR50 (LOCF): 10.0%
  ACR50 (NRI): 10.0%
  ACR70 (LOCF): 1.4%
  ACR70 (NRI): 1.4%
[16]
  ACR20 (LOCF): 34.3%
  ACR20 (NRI): 32.9%
  ACR50 (LOCF): 8.6%
  ACR50 (NRI): 7.1%
  ACR70 (LOCF): 1.4%
  ACR70 (NRI): 1.4%
[17]
  ACR20 (LOCF): 35.7%
  ACR20 (NRI): 32.9%
  ACR50 (LOCF): 8.6%
  ACR50 (NRI): 7.1%
  ACR70 (LOCF): 1.4%
  ACR70 (NRI): 1.4%
[18]
  ACR20 (LOCF): 44.3%
  ACR20 (NRI): 44.3%
  ACR50 (LOCF): 18.6%
  ACR50 (NRI): 18.6%
  ACR70 (LOCF): 5.7%
  ACR70 (NRI): 5.7%
[19]
  ACR20 (LOCF): 44.3%
  ACR20 (NRI): 44.3%
  ACR50 (LOCF): 18.6%
  ACR50 (NRI): 18.6%
  ACR70 (LOCF): 5.7%
  ACR70 (NRI): 5.7%
[20]
  ACR50 (NRI): 25.7%
  ACR70 (NRI): 11.4%
[21]
  ACR50 (NRI): 34.3%%
  ACR70 (NRI): 18.6%%
[22]
  ACR50 (NRI): 35.7%
  ACR70 (NRI): 18.6%
[23]
  ACR50 (NRI): 38.6%
  ACR70 (NRI): 17.1%
[24]
  ACR50 (NRI): 41.4%
  ACR70 (NRI): 24.3%
[25]
  ACR50 (NRI): 40.0%
  ACR70 (NRI): 25.7%
[26]
  ACR20 (LOCF): 60.0%
  ACR20 (NRI): 61.4%
  ACR50 (LOCF): 25.7%
  ACR50 (NRI): 25.7%
  ACR70 (LOCF): 11.4%
  ACR70 (NRI): 11.4%
[27]
  ACR20 (LOCF): 39.1%
  ACR20 (NRI): 39.1%
  ACR50 (LOCF): 7.2%
  ACR50 (NRI): 7.2%
  ACR70 (LOCF): 1.4%
  ACR70 (NRI): 1.4%
[28]
  ACR20 (LOCF): 39.1%
  ACR20 (NRI): 39.1%
  ACR50 (LOCF): 7.2%
  ACR50 (NRI): 7.2%
  ACR70 (LOCF): 1.4%
  ACR70 (NRI): 1.4%
[29]
  ACR20 (LOCF): 53.6%
  ACR20 (NRI): 56.5%
  ACR50 (LOCF): 21.7%
  ACR50 (NRI): 21.7%
  ACR70 (LOCF): 4.3%
  ACR70 (NRI): 4.3%
[30]
  ACR20 (LOCF): 56.5%
  ACR20 (NRI): 56.5%
  ACR50 (LOCF): 21.7%
  ACR50 (NRI): 21.7%
  ACR70 (LOCF): 4.3%
  ACR70 (NRI): 4.3%
[31]
  ACR20 (LOCF): 62.3%
  ACR20 (NRI): 63.8%
  ACR50 (LOCF): 23.2%
  ACR50 (NRI): 23.2%
  ACR70 (LOCF): 11.6%
  ACR70 (NRI): 11.6%
[32]
  ACR20 (LOCF): 63.8%
  ACR20 (NRI): 62.3%
  ACR50 (LOCF): 23.2%
  ACR50 (NRI): 23.2%
  ACR70 (LOCF): 11.6%
  ACR70 (NRI): 11.6%
[33]
  ACR50 (NRI): 33.3%
  ACR70 (NRI): 17.4%
[34]
  ACR50 (NRI): 43.5%%
  ACR70 (NRI): 13.0%%
[35]
  ACR50 (NRI): 43.5%
  ACR70 (NRI): 13.0%
[36]
  ACR50 (NRI): 40.6%
  ACR70 (NRI): 18.8%
[37]
  ACR50 (NRI): 44.9%
  ACR70 (NRI): 24.6%
[38]
  ACR50 (NRI): 44.9%
  ACR70 (NRI): 24.6%
[39]
  ACR20 (LOCF): 72.5%
  ACR20 (NRI): 73.9%
  ACR50 (LOCF): 33.3%
  ACR50 (NRI): 33.3%
  ACR70 (LOCF): 17.4%
  ACR70 (NRI): 17.4%
